Reference: patent US6689805B2, “Pyrazole-3-one derivative, method for preparing the same, and pharmaceutical composition containing the same” (CJ Corp., priority 2002, dated 2004)

Legend:
COX-1 = biological target: T1, COX-1 (Homo sapiens, UniProt P23219); assay: Assay for the COX-1 inhibitory activity using U-937 (PGE2 inhibition); type: cell-based; conditions: test compound 1 μM; U-937 human lymphoma cells; PGE2 vs DMSO control; read-out: Cyclooxygenase (COX) Inhibition (%) COX-1 (1 μM)
T1 construct: endogenous in cells
Procedure: The collected cells were diluted with HBSS (x1, Hank's balanced salt solution) to a concentration of 1×10^6 cells/ml. 1 ml of the dilute cell solution was placed into each well of 12-well plates. 5 μl of 1 μM solution of a test compound in DMSO and 5 μl of DMSO as a control were added to the wells. The wells were incubated in CO2 incubator at 37° C. for 15 minutes. Separately, 10 mM stock solution of arachidonic acid in ethanol was diluted ten times in ethanol to prepare 1 mM solution of arachidonic acid. Arachidonic acid acts as a substrate. 10 μl of the 1 mM solution of arachidonic acid was added to each well and incubated at CO2 incubator at 37° C. for 30 minutes. The cell solution of each well was placed in a centrifuge test tube and centrifuged at 10,000 rpm at 4° C. for 5 minutes. The concentration of PGE2 in the collected cells and the supernatant was quantified by means of a monoclonal kit (Cayman Chemicals). The percentages of PGE2 inhibition in a group of the test compound-treated cells in relation to a group of the DMSO-treated cells were calculated. Based on the calculated values, the COX-1 inhibitory activities were evaluated.
(§1) The percentages of the COX inhibition were calculated according to the following equation:
(§2) % Inhibition=(concentration of PGE2 in test compound-untreated sample−concentration of PGE2 in test compound-treated sample) / (concentration of PGE2 in test compound-untreated sample)×100

COX-2 = biological target: T2, COX-2 (Mus musculus, UniProt Q05769); assay: Assay for the COX-2 inhibitory activity using RAW 264.7 cell line (PGE2 inhibition); type: cell-based; conditions: RAW264.7, test compound 10 nM, RAW 264.7 cells, interferon + LPS induced, read-out: Cyclooxygenase (COX) Inhibition (%) COX-2 (10 nM)
T2 construct: endogenous in cells
T2 sequence (Q05769 18-604): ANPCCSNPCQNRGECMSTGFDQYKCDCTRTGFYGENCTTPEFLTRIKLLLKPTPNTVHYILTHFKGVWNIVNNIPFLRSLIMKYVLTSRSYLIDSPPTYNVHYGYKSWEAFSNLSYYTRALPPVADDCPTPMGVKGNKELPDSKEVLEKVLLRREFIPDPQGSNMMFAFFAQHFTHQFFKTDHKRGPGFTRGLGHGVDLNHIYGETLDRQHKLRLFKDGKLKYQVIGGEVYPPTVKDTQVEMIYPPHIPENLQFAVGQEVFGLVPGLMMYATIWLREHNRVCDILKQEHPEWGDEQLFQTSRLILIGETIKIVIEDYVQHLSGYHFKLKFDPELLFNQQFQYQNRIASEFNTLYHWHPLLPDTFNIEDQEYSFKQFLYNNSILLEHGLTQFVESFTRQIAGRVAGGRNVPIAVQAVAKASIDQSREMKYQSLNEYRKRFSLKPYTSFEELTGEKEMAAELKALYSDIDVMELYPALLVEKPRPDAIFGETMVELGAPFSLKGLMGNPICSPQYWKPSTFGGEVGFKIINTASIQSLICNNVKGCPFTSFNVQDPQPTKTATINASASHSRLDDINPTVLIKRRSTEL
Procedure: Each well was treated with 250 μM of aspirin and incubated at 37° C. for 2 hours. After the culture media were replaced with new culture media, the new culture media were treated with a test compound (10 nM) and incubated for 30 minutes. Then, each well was treated with interferon ? (100 units/ml) and lipopolysaccharide (LPS, 100 ng/ml) and incubated for 18 hours. The culture media were transferred to other test tubes. The concentration of PGE2 was quantified by means of the EIA kit (Cayman Chemicals).
as §1, §2

T1 sequence (P23219 24-599): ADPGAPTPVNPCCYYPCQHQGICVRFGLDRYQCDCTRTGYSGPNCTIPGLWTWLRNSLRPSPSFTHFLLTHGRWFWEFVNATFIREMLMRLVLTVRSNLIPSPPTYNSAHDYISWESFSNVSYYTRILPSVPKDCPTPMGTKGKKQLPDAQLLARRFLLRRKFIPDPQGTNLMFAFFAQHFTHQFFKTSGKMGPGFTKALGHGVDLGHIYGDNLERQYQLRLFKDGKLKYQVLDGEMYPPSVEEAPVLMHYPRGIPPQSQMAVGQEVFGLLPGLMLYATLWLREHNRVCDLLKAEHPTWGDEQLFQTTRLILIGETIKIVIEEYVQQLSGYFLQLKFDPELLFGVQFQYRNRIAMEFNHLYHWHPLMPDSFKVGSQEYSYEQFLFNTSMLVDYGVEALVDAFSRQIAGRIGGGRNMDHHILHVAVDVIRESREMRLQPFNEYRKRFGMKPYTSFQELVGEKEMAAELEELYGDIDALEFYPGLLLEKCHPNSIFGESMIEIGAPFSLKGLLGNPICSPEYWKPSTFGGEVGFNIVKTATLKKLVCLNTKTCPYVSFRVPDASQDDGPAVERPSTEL

| melting point | inhibition at 1 µM (COX-1) | inhibition at 0.01 µM (COX-2) | Compound |
| --- | --- | --- | --- |
| 240 to 242 °C |  |  | Cn1c(-c2ccc(S(C)(=O)=O)cc2)c(-c2ccc(Cl)c(Cl)c2)c(=O)n1C [Example 8, 4-(3,4-dichlorophenyl)-5-(4-methanesulfonylphenyl)-1,2-dimethyl-1,2-dihydropyrazole-3-one] |
| 245 to 247 °C | 10.5% | 22.5% | COc1ccc(-c2c(-c3ccc(S(C)(=O)=O)cc3)n(C)n(C)c2=O)cc1 [Example 5, 5-(4-methanesulfonylphenyl)-4-(4-methoxyphenyl)-1,2-dimethyl-1,2-dihydropyrazole-3-one] |
| 247 to 249 °C | 36.5% | 12.5% | Cc1ccc(-c2c(-c3ccc(S(C)(=O)=O)cc3)n(C)n(C)c2=O)cc1 [Example 7, 5-(4-methanesulfonylphenyl)-1,2-dimethyl-4-(4-methylphenyl)-1,2-dihydropyrazole-3-one] |
| 210 to 212 °C | 22.6% | 13.2% | Cn1c(-c2ccc(S(C)(=O)=O)cc2)c(-c2ccccc2)c(=O)n1C [Example 6, 5-(4-methanesulfonylphenyl)-1,2-dimethyl-4-phenyl-1,2-dihydropyrazole-3-one] |

| Compound | melting point | inhibition at 1 µM (COX-1) | inhibition at 0.01 µM (COX-2) |
| --- | --- | --- | --- |
| Cc1onc(-c2ccccc2)c1-c1ccc(S(N)(=O)=O)cc1 [Reference (Valdecoxib), Valdecoxib, reference compound] |  | 28.8% |  |
